Test results: patent publication US9663573B2, “Methods of treating liver conditions using Notch2 antagonists” (GENENTECH, INC., priority 2011, dated 2017)

Assays:
Notch2 = biological target: T1, Notch2 (Mus musculus, UniProt O35516); assay: Notch2 signaling in cultured oval cells (activated Notch2 ICD by Western blot, Hes1 expression); type: cell-based; details: FIG. 2H
T1 construct: Cell cultures were established by culturing primary oval cells on Sw-3T3 fibroblasts; endogenous in cells; host or cells: primary mouse liver oval (progenitor) cells
T1 sequence (O35516 26-2473): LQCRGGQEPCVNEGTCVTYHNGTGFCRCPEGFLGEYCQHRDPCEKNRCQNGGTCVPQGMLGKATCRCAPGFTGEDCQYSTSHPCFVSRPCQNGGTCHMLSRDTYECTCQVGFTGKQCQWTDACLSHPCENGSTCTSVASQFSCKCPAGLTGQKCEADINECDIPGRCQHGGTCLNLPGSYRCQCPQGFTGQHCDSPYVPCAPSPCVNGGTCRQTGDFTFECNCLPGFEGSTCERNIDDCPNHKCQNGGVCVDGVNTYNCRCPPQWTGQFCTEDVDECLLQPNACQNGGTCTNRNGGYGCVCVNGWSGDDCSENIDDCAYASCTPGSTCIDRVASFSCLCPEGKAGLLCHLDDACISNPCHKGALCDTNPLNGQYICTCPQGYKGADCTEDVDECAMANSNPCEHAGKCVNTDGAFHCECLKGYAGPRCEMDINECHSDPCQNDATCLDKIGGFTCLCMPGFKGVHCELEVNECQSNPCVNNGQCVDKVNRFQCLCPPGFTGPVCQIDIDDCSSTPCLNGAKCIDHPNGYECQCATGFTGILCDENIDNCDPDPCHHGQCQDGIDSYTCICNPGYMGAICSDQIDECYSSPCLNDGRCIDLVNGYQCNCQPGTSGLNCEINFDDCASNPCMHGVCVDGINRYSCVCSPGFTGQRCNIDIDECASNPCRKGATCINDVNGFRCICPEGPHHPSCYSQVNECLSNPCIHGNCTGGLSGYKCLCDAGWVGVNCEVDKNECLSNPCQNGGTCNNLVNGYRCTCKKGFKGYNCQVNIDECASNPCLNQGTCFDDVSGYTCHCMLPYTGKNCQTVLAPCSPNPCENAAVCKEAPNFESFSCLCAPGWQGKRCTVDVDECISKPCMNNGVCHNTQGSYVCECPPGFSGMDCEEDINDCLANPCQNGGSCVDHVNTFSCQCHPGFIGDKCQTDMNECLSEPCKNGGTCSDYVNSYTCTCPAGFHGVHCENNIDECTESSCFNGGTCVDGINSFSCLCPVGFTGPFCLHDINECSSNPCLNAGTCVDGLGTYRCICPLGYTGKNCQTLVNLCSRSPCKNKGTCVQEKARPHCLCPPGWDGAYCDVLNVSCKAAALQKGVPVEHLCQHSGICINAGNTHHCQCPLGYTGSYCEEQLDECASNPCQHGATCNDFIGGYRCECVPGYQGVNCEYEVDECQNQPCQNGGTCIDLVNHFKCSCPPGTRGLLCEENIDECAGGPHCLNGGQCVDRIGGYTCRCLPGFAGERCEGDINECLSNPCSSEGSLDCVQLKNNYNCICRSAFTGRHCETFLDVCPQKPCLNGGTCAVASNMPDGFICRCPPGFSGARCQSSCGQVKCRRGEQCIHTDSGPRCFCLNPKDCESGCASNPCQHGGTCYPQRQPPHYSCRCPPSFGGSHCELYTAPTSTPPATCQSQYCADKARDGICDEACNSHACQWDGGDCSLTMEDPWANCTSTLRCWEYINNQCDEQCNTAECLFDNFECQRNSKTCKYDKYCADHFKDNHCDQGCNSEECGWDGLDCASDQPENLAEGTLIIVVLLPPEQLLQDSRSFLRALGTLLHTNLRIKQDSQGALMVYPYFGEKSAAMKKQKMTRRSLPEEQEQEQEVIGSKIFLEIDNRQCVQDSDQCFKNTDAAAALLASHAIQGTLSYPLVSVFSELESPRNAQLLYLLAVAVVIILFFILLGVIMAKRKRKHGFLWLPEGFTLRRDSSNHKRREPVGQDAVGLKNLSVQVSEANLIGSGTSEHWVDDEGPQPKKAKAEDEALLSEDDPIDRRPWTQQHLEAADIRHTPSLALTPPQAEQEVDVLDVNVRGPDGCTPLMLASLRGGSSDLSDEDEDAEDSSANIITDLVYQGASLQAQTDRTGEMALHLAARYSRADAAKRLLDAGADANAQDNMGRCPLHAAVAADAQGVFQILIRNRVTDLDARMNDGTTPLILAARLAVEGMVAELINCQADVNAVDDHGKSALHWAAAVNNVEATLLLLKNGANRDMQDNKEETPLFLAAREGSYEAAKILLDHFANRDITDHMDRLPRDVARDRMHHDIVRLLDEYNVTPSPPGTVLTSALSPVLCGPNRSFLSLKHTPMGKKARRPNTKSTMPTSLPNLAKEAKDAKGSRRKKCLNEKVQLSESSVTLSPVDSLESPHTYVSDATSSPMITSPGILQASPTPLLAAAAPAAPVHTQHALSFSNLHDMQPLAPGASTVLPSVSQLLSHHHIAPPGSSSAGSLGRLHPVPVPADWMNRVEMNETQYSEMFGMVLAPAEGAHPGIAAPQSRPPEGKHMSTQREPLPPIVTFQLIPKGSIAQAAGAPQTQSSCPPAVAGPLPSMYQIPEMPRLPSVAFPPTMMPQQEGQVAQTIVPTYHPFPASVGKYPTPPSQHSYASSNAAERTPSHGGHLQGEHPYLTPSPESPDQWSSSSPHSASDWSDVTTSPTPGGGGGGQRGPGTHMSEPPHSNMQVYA
Source text: The anti-activated Notch2 antibody (clone 40-2-7) was generated against the peptide VIMAKRKRKHGSLW, corresponding to amino acids 1697-1710 of the human Notch2 protein sequence (SEQ ID NO:73), coupled to KLH (YenZym Custom Antibodies, LLC). Splenocytes from a rabbit producing an antibody with the appropriate specificity were used to generate hybridomas (Epitomics, Inc.). Clone 40-2-7 was identified by screening the resulting rabbit monoclonal antibodies by immunoblotting and immunohistochemistry. This antibody recognizes both human (FIG. 7B, left panel) and mouse (FIG. 7B, right panel) active Notch2 at endogenous levels.
Progenitors cultured in the culture system maintained growth (FIG. 2A) and formed colonies consisting of small, tightly packed cells with a high nuclear-cytoplasmic ratio and a distinct raised edge (FIG. 2A, left panel). The cells within these colonies were uniformly EpCAM positive (FIG. 2A, right panel). […] Activated Notch2 was detected by Western blot analysis using a rabbit monoclonal antibody raised against the S3 cleaved form of the human Notch2 protein (FIG. 7B). […]
Notch2 signaling was active in cultured oval cells, as transcriptionally active Notch2 intracellular domain (ICD) could be detected using an antibody specific to the γ-secretase cleaved form of this receptor (FIG. 2H). […]

[1] = tested on: liver progenitor cells (oval cells); assay: Primary oval cell culture on Sw-3T3 feeder fibroblasts: colony formation and proliferation; type: cell-based, mouse
Source text: To elucidate the role of Notch signaling in liver regeneration, an in vitro culture system was developed. Cell cultures were established by culturing primary oval cells on Sw-3T3 fibroblasts (ATCC), arrested with Mitomycin C (Sigma), in High Glucose Dulbecco's Modified Eagle Medium (DMEM; Invitrogen) supplemented with 15% Fetal Calf Serum (Sigma), non-essential amino acids (Invitrogen), Glutamax (Invitrogen), and ITS (Invitrogen).

appearance of gamma-secretase cleaved (active) form of Notch2 (ICD) (Notch2): absent
Compound: C[C@H](NC(=O)Cc1cc(F)cc(F)c1)C(=O)N[C@H](C(=O)OC(C)(C)C)c1ccccc1 [DAPT, N—[N-(3,5-difluorophenacetyl)-1-alanyl]-S-phenylglycine t-butyl ester]
progenitor cell proliferation ([1]; FIG. 2D): small increase
colony formation frequency ([1]; plated CD45 negative, non-parenchymal cells, without DAPT approximately 1 colony per 100,000): approximately 1 colony per 10,000 cells plated
enhancement of colony formation ([1]; primary cultures treated with DAPT vs untreated, FIG. 2B): approximately ten-fold
